From a melting point compilation (Tetko et al.; mined from patent text by program, amines drawn as free bases though some values may be those of a salt)

| melting point | Compound |
| --- | --- |
| 94 to 95 °C | Nc1ccc([C@@H](O)CNC[C@H]2CCc3cc(NS(=O)(=O)c4ccc(-n5nnn(CCCC6CCCCC6)c5=O)cc4)ccc3O2)cn1 |
| 130 to 132 °C | CC(C)CN1CCN(c2cc3ccccc3c(=O)[nH]2)CC1CO (stereo not drawn) |
| 182 to 183 °C | Cc1nnc(Cl)c(-c2c(F)cc(F)cc2F)c1-c1ccc(Cl)nc1 |
| 195 °C | N#CC(Nc1ccccc1[N+](=O)[O-])c1c(Cl)cccc1Cl (stereo not drawn) |
| 154 to 155 °C | Cc1c(CCC(=O)O)c2cc(Cl)ccc2n1Cc1ccc(Br)cc1 |
| 219 to 221 °C | O=C1CCC(N2C(=O)c3cccc(Nc4ccc(C5CCCCC5)cc4)c3C2=O)C(=O)N1 (stereo not drawn) |
| 178 to 179 °C | CC(C)=NOCc1nc2c(N)nc3ccccc3c2n1CCCNS(C)(=O)=O |
| 175 to 177 °C | CC1C=C(c2nc3cccc(F)c3s2)C=CC1=N (stereo not drawn) |
| 79 to 80 °C | CC1CC(=O)N(CCCCN2C(=O)c3ccccc3C2=O)C1=O (stereo not drawn) |
| 150 to 154 °C | O=C(Nc1ccc(OC(F)(F)F)cc1)NC1CCN(C(=O)C(F)(F)F)CC1 |
| 148 to 150 °C | CS(=O)(=O)ON1C(=O)CCC1=O |
| 83 to 85 °C | FC(F)(F)c1ccc(-c2ccc3ccn(Cc4ccccc4)c3c2)cc1 |
| > 300 °C | O=c1[nH]c(=O)c2cc(S(=O)(=O)O)ccc2[nH]1 |
| 149 to 150 °C | CC(C#Cc1ccc(Oc2ccc(F)cc2)s1)N(O)C(N)=O (stereo not drawn) |
| 76 to 77 °C | CC(CCOS(N)(=O)=O)Oc1ccccc1 (stereo not drawn) |
| 250 to 252 °C | Nc1nc(=O)n(C(=O)Nc2cccc(Cl)c2)cc1F |
| 162 to 165 °C | N#Cc1cc(C(=O)CBr)ccc1N |
| 117 to 119 °C | COC(=O)c1ccc(CCNCC(O)c2cc3ccccc3o2)cc1 (stereo not drawn) |
| 137 to 138 °C | CCOC(=O)CCCCCOc1ccc(C(=O)Nc2ccccc2Sc2ccccc2-c2nnn[nH]2)cc1 |
| 277 to 279 °C | N#Cc1ccccc1-c1c(O)ccc2c3c(oc12)-c1cc(O)ccc1CC3 |
| 79 °C | CN1CCC(NC(c2cccc(C#CCCCCN)c2)c2nc3ccccc3[nH]2)CC1 (stereo not drawn) |
| 121 to 122 °C | CCOC(=O)C1CCc2sc3ccc(C#N)cc3c2C1 (stereo not drawn) |
| 73 to 74 °C | CCCCCCCCCCCCCCCCCCOc1cc(N)cc(OC(C)=O)c1 |
| 202 to 204 °C | Cc1cccc2ncc(C(=O)Nc3ccc(Cl)cc3)c(=O)n12 |
| 220 to 222 °C | O=C1CCC(N2Cc3c(OCc4ccc(CN5CCC(c6ccccc6)CC5)cc4)cccc3C2=O)C(=O)N1 (stereo not drawn) |

| melting point | Compound |
| --- | --- |
| 205 to 211 °C | NCC1CN(c2cc3c(cc2F)c(=O)c(C(=O)O)cn3C2CC2)C1 |
| 228 to 230 °C | COc1ccc(C(=O)Nc2ccc(F)c(F)c2)cc1NS(=O)(=O)c1ccc(C#N)cc1 |
| 37 to 39 °C | Cc1c(F)ccc([N+](=O)[O-])c1Cl |
| 148 °C | Cn1cc(C[C@H]2NC(=O)[C@@H](CCCN)NC2=O)c2ccccc21 |
| 218 to 221 °C | O=C(Cc1ccc(O)cc1)Nc1c(-c2cc(Cl)ccc2O)c2cc(C(F)(F)F)ccc2[nH]c1=O |
| 107 to 108 °C | CCCN(CCC)CCCOc1ccc(S(=O)(=O)c2c(C)cn3ccccc23)cc1 |
| 209 °C | COC(=O)COc1ccc(C)c2c1c1c(n2Cc2ccccc2)CCCC1C(N)=O (stereo not drawn) |
| 286 to 288 °C | CCCCNC(=O)C1CC2(NC(=O)NC2=O)c2cc(F)ccc2O1 (stereo not drawn) |
| 99 to 100 °C | CC(C)(C)c1cc(CCc2ccccc2NC(=O)NC2CCN(Cc3cccc(F)c3)CC2)cc(C(C)(C)C)c1O |
| 98 to 100 °C | Cc1cc(C)c2c(-c3coc4cc(C)cc(C)c34)coc2c1 |
| 83 to 86 °C | Cc1ccc(Sc2nc(Cl)cc(OCCC(C)C)n2)cc1 |
| 76 to 79 °C | C=CCC1(C(=O)NCCC)c2ccccc2CCc2ccccc21 |
| 250 °C | Oc1ccc2ccccc2c1N=Nc1ccc2[nH]nnc2c1 |
| 159 to 161 °C | CN1CCc2c(sc3c2C(=O)N(CCCl)CN3)C1 |
| 254 to 256 °C | COc1ccc(-c2cc3cc(F)c(F)cc3[nH]2)cc1NS(C)(=O)=O |
| 182 to 183 °C | Nc1nnc(-c2ccc3occ(-c4cccc(OC(F)(F)F)c4)c3c2)o1 |
| 157 to 158 °C | Cc1oc(-c2ccccc2)nc1COc1ccc(OCc2nc(-c3ccccc3)oc2CO)cc1 |
| 284 to 286 °C | O=C1Nc2ccccc2S(=O)(=O)c2ccccc21 |
| 78 to 82 °C | COC(=O)c1c(O)ccnc1C(F)(F)F |
| > 330 °C | Cc1cn(-c2cc3c(cc2C(F)(F)F)[nH]c(=O)c2n[nH]c(=O)n23)c(C)n1 |
| 117 to 118 °C | COc1ccc(C(=O)c2cccc(CC(=O)O)c2N)cc1 |
| 85.5 to 86.5 °C | O=C(OCc1ccccc1)N1CCN2C(=O)OCC2C1 (racemic) |
| 173 to 175 °C | Cc1cc(=O)c2ccc(OCCCN3CCC(NC(=O)c4ccccc4)CC3)cc2o1 |
| 155 to 157 °C | CC(=O)c1cc2c(s1)CCC1CC(=O)N(c3ccc(Cl)cc3)N=C21 (stereo not drawn) |
| 96 to 97 °C | CN(Cc1cc(C(F)(F)F)cc(C(F)(F)F)c1)C(=O)c1cnc2ccccc2c1-c1ccccc1 |

| melting point | Compound |
| --- | --- |
| 127 to 131 °C | CC(C)(O)CON1C(C)(C)CC(O)CC1(C)C |
| 288 °C | NS(=O)(=O)c1ccc(-c2noc(-c3cnc4ccc(-c5ccc(C(F)(F)F)cc5)cn34)n2)cc1 |
| 98 to 99 °C | CCCCCCCCCCCCCCCCCCS(=O)(=O)c1cc2ccccc2cc1O |
| 86.4 °C | CC(C)N(CCC(c1ccccc1)c1cc(CO)ccc1OCc1ccccc1)C(C)C (stereo not drawn) |
| 127 to 128 °C | CC(C)(C)OC(=O)N[C@H](Cc1cccc(OC(F)(F)C(F)F)c1)[C@@H](O)c1csc(-c2ccccc2)n1 (racemic) |
| 283 to 284 °C | Cc1c(Cl)cccc1S(=O)(=O)Nc1ccc2c(c1)nc(C)n2C |
| 145 to 148 °C | O=C(O)C1CCC2CCC(=O)N21 (stereo not drawn) |
| 230 to 231 °C | CC(C)(O)c1cccc(-c2ccc3nc(-c4ccc(Cl)cc4)cn3c2)c1Cl |
| 44 to 45 °C | Cc1sc(C=O)c(C)c1Br |
| 109 to 110 °C | CCc1nc(C(=O)OC)c(Cl)c(N)c1F |
| 148 °C | CCC(=O)C1CCC2C3CCC4CC(=O)CCC4(C)C3C(=O)CC12C (stereo not drawn) |
| 155 to 157 °C | CCCCc1ncc(CSc2ncccc2C(=O)O)n1Cc1ccc(C(=O)O)cc1 |
| 136 to 138 °C | CCOC(=O)c1cc2ccc3c4ccccc4ccc3c2n1C |
| 104 to 106 °C | Nc1ccc(SCCOC2OC(CO)C(OC3OC(CO)C(O)C(O)C3O)C(O)C2O)cc1 (stereo not drawn) |
| 119 °C | CC(C)(C)OC(=O)C(=[N+]=[N-])C(=O)C(SCc1ccccc1)C1CC(=O)N1 (stereo not drawn) |
| 135 to 137 °C | O=C(O)CCC(CCC(=O)O)(CCC(=O)O)C(=O)c1ccc(Cl)cc1 |
| 51 to 53 °C | COc1cc(C(=O)CSCC2CCCCC2)c(OC)cc1Cl |
| 116 to 118 °C | OC(Cc1ccc(F)cc1)(Cn1cncn1)c1ccccc1 (stereo not drawn) |
| 96 to 98 °C | CN(Cc1ccccc1CC(=O)O)C(=O)OC(C)(C)C |
| 105 to 106 °C | CNC(=O)/C(=N/OC)c1ccccc1COc1ncc(Cl)cc1C(F)(F)F |
| 177 to 178 °C | O=C1CSC(=S)N1c1cccc(C(F)(F)F)c1 |
| 55 to 57 °C | FC(F)(F)c1ccc(-c2ncc(CCl)s2)cc1 |
| 200 to 201 °C | COC(=O)c1c[nH]cc1-c1cccc(Cl)c1Cl |
| 80 to 83 °C | N#Cc1cccc(N=C(NCC(=O)O)NCC2CCCCC2)c1 |
| 136 to 140 °C | COCCC1(C(=O)N[C@@H](Cc2ccc(NC(=O)c3c(Cl)cccc3Cl)cc2)C(=O)O)CCCC1 |

| melting point | Compound |
| --- | --- |
| 196 °C | CCOC(=O)C(C(C)=O)C1NC(=O)c2sccc2-n2cccc21 (stereo not drawn) |
| 125 to 126 °C | CCc1nc(C(=O)c2ccc(Cl)cc2Cl)c(C(C)O)n1C(CC)CC (stereo not drawn) |
| 195 to 197 °C | CC1(C)CC(C2=NN(CC#N)C(=O)N(/N=C/c3cncc(F)c3)C2)=NO1 |
| 185 to 186 °C | O=C1c2ccc(-n3ncc4ccccc43)cc2CCN1CCN1CCCC1 |
| 192 to 194 °C | CC(C(=O)O)c1cc(=O)n(Cc2ccc(Cl)cc2)c2ccc(Cl)cc12 (stereo not drawn) |
| 230 to 232 °C | CC(C)Cn1c(CN2CCCS2(=O)=O)nc2c(N)nc3ccccc3c21 |
| 35 °C | CSc1nccc(C(C)=O)n1 |
| 146 to 148 °C | CC(C)(C)C(Cl)=CC(=O)O |
| 112 to 113 °C | CCOC(=O)c1cn(-c2cccc(Oc3ccc(Cl)cc3)c2)cn1 |
| 190 °C | COc1ccc2ncc3c(c2c1)C(O)CCC3 (stereo not drawn) |
| 199 to 201 °C | O=C(O)Cc1ccc(NC(=O)CCc2cnn(-c3ccccc3)c2-c2ccccc2)cc1 |
| 224 to 226 °C | CCn1c2ccccc2c2oc(C(N)=O)cc(=O)c21 |
| 173 to 197 °C | NS(=O)(=O)c1ccccc1Cc1nnc(S)s1 |
| 154 to 155 °C | COc1ccc(Cc2sccc2OC2OC(CO)C(O)C(O)C2O)cc1 (stereo not drawn) |
| 180 °C | Cc1cc([N+](=O)[O-])c2c(c1SC(=O)N(C)C)CCC2 |
| 96 to 100 °C | CCCCCc1c(-c2ccc3cc(O)ccc3c2)n(Cc2ccccc2)c2ccccc12 |
| 146 to 148 °C | CC(C)(C)CNc1nc(NC(C)(C)C)cc(N2CCNCC2)n1 |
| 108 to 110 °C | COc1cc(C)c(OC)cc1C |
| 96 to 97 °C | CCCn1ccc(=O)c(OC(=O)NCC(=O)OCC)c1C |
| 132 to 134 °C | O=C(O)c1ccc(NCc2cc(Br)ccc2CCc2ccccc2)cc1 |
| 138 to 140 °C | COc1cc(-n2nc3ccc(Cl)cn3c2=O)c(F)cc1N |
| 159 to 161 °C | O=C(Nc1n[nH]c(=S)s1)NC(Cc1ccccc1)C(=O)NCc1ccccn1 (stereo not drawn) |
| 271 to 272 °C | O=C(O)c1cccc(-c2ccc3occ(-c4ccc(Cl)cc4Cl)c3c2)c1 |

| Compound | melting point |
| --- | --- |
| CN1CC=C(c2c[nH]c3ccc(NC(=S)NC(=O)c4ccccc4)cc23)CC1 | 182 to 184 °C |
| CCCCCCCCCCOc1ccc(CC(C)NCC(O)c2cccc(Cl)c2)cc1 (stereo not drawn) | 59 to 61 °C |
| CC(C)(CO)NC(=O)c1nn(-c2ccc(Br)cc2)c2c1C1CCC2C1 (stereo not drawn) | 184 to 186 °C |
| c1ccc2c(C3CCNCC3)n[nH]c2c1 | 213 to 215 °C |
| O=C(O)CC(NC(=O)C(Cl)Cl)C(=O)O (stereo not drawn) | 165 to 168 °C |
